Patent publication US9884854B2, “N-[(pyrimidinylamino)propanyl]-and N[(pyrazinylamino)proppanyl]arylcarboxamides” (Boehringer Ingelheim International GmbH, priority 2016, dated 2018)

Biological target: T1, OX1R (Homo sapiens, UniProt O43613)
T1 sequence (O43613 1-425): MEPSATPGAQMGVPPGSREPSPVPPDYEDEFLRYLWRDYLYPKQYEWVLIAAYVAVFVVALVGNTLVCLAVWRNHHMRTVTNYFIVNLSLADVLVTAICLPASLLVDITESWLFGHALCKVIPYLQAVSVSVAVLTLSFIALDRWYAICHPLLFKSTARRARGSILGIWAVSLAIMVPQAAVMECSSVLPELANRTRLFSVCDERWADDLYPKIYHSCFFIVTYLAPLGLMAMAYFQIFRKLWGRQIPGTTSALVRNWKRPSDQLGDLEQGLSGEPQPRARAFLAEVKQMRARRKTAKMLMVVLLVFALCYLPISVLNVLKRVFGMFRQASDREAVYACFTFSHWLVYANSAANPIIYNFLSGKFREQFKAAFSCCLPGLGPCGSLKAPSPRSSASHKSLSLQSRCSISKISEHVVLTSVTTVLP
Assay: not given
Conditions: Table 1 of WO2016/034882; cited from earlier work

Compound	OX2R IC50/OX1R IC50
CC[C@@H](CNc1ncc(C(F)(F)F)cn1)N(C)C(=O)c1nc(C)ccc1-n1nccn1 [Ex 46 in WO2016/034882]	390

Same assay, conditions: Table 2 of WO2016/034882; cited from earlier work

Compound	OX2R IC50/OX1R IC50
CC[C@@H](CNc1ncc(C(F)(F)F)cn1)N(C)C(=O)c1nc(C)ccc1-n1nccn1 [Ex 46 in WO2016/034882]	> 312

Same assay, conditions: Table 3 of WO2016/034882; cited from earlier work

Compound	OX2R IC50/OX1R IC50
CC[C@@H](CNc1cnc(C(F)(F)F)cn1)N(C)C(=O)c1cc(Cl)ccc1-n1nccn1 [Ex 40 in WO2016/034882, reference compound]	Table 3: 156
CC[C@@H](CNc1ncc(C(F)(F)F)cn1)N(C)C(=O)c1nc(C)ccc1-n1nccn1 [Ex 46 in WO2016/034882]	3200
CC[C@@H](CNc1ncc(C(F)(F)F)cn1)N(C)C(=O)c1nc(C)ccc1-c1ncccn1 [Ex 84 in WO2016/034882, reference compound]	Table 3: 526
CC[C@@H](CNc1ncc(C(F)(F)F)cn1)N(C)C(=O)c1nc(C)ccc1-n1cccn1 [Ex 90 in WO2016/034882]	Table 3: >526

Biological target: T2, OX2R (Homo sapiens, UniProt O43614)
T2 sequence (O43614 1-444): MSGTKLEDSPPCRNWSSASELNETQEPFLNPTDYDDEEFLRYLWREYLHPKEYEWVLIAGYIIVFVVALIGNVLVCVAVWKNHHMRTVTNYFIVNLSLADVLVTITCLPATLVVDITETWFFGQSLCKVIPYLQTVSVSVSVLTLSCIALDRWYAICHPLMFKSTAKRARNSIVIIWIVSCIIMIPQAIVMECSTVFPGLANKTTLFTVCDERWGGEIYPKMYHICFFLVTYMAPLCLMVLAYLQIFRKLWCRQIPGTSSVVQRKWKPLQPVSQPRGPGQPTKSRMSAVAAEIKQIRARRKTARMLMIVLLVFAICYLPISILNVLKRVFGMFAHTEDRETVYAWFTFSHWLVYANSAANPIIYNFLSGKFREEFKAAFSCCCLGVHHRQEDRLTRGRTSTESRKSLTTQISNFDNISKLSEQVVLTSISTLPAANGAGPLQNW
Assay: not given
Conditions: Table 2 of WO2016/034882; cited from earlier work

Compound	OX2R pIC50
CC[C@@H](CNc1ncc(C(F)(F)F)cn1)N(C)C(=O)c1nc(C)ccc1-n1nccn1 [Ex 46 in WO2016/034882]	< 5.0

Same assay, conditions: Table 3 of WO2016/034882; cited from earlier work

Compound	OX2R pIC50
CC[C@@H](CNc1ncc(C(F)(F)F)cn1)N(C)C(=O)c1nc(C)ccc1-n1nccn1 [Ex 46 in WO2016/034882]	< 5.0
CC[C@@H](CNc1ncc(C(F)(F)F)cn1)N(CC)C(=O)c1nc(C)ccc1-n1nccn1 [Ex 73 in WO2016/034882]	< 6.0
CC[C@@H](CNc1ncc(C(F)(F)F)cn1)N(C)C(=O)c1nc(C)ccc1-n1cccn1 [Ex 90 in WO2016/034882]	< 6.0
CC[C@@H](CNc1ncc(C(F)(F)F)cn1)N(C)C(=O)c1c(F)cccc1-n1nccn1 [Ex 91 in WO2016/034882]	< 5.1

Same assay, conditions: corresponds to pIC50, Table 2 of WO2016/034882; cited from earlier work

Compound	IC50 [µM]
CC[C@@H](CNc1ncc(C(F)(F)F)cn1)N(C)C(=O)c1nc(C)ccc1-n1nccn1 [Ex 46 in WO2016/034882]	> 10

Same assay, conditions: corresponds to pIC50, Table 3 of WO2016/034882; cited from earlier work

Compound	IC50 [µM]
CC[C@@H](CNc1ncc(C(F)(F)F)cn1)N(C)C(=O)c1nc(C)ccc1-n1nccn1 [Ex 46 in WO2016/034882]	≥ 10
CC[C@@H](CNc1ncc(C(F)(F)F)cn1)N(CC)C(=O)c1nc(C)ccc1-n1nccn1 [Ex 73 in WO2016/034882]	> 1
CC[C@@H](CNc1ncc(C(F)(F)F)cn1)N(C)C(=O)c1c(F)cccc1-n1nccn1 [Ex 91 in WO2016/034882]	≥ 7.95

Tested on: human MDR1 P-gp
Assay: Assay D: efflux in MDCK cells transfected with the human MDR1 gene
Type: in vitro ADME, canine
Conditions: dog; MDCK-MDR1 monolayers, pH 7.4, 37° C.; read-out: MDCK efflux ratio (BA/AB)
Experimental: The MDCK assay provides information on the potential of a compound to pass the blood brain barrier. Permeability measurements across polarized, confluent MDCK-MDR1 cell monolayers grown on permeable filter supports are used as an in vitro absorption model: apparent permeability coefficients (PE) of the compounds across the MDCK-MDR1 cell monolayers are measured (pH 7.4, 37° C.) in apical-to-basal (AB) and basal-to-apical (BA) transport direction. The AB permeability (PEAB) represents drug absorption from the blood into the brain and the BA permeability (PEBA) drug efflux from the brain back into the blood via both, passive permeability as well as active transport mechanisms mediated by efflux and uptake transporters that are expressed on the MDCK-MDR1 cells, predominantly by the overexpressed human MDR1 P-gp. Identical or similar permeabilities in both transport directions indicate passive permeation, vectorial permeability points to additional active transport mechanisms. Higher PEBA than PEAB (PEBA/PEAB>5) indicates the involvement of active efflux mediated by MDR1 P-gp, which might compromises the goal to achieve sufficient brain exposure. Therefore this assay provides valuable support for selection of compounds applicable for further in vivo testing. High permeability not limited by efflux at the blood brain barrier is a favourable characteristic for compounds that are to be used for drugs acting primarily in the CNS
D. Assessment of Efflux in Madin-Darby Canine Kidney (MDCK) Cells Transfected with the Human MDR1 Gene
Apparent permeability coefficients (PE) of the compounds across the MDCK-MDR1 cell monolayers are measured (pH 7.4, 37° C.) in apical-to-basal (AB) and basal-to-apical (BA) transport direction. AB permeability (PEAB) represents drug absorption from the blood into the brain and BA permeability (PEBA) drug efflux from the brain back into the blood via both passive permeability as well as active transport mechanisms mediated by efflux and uptake transporters that are expressed on the MDCK-MDR1 cells, predominantly by the overexpressed human MDR1 P-gp. The compounds are assigned to permeability/absorption classes by comparison of the AB permeabilities with the AB permeabilities of reference compounds with known in vitro permeability and oral absorption in the human. Identical or similar permeabilities in both transport directions indicate passive permeation, vectorial permeability points to additional active transport mechanisms. Higher PEBA than PEAB indicates the involvement of active efflux mediated by MDR1 P-gp. Active transport is concentration-dependently saturable.
MDCK-MDR1 cells (1-2×10e5 cells/1 cm2 area) are seeded on filter inserts (Costar transwell polycarbonate or PET filters, 0.4 μm pore size) and cultured (DMEM) for 7 days. Subsequently, the MDR1 expression is boosted by culturing the cells with 5 mM sodium butyrate in full medium for 2 days. Compounds are dissolved in appropriate solvent (like DMSO, 1-20 mM stock solutions). Stock solutions are diluted with HTP-4 buffer (128.13 mM NaCl, 5.36 mM KCl, 1 mM MgSO4, 1.8 mM CaCl2, 4.17 mM NaHCO3, 1.19 mM Na2HPO4×7H2O, 0.41 mM NaH2PO4×H2O, 15 mM HEPES, 20 mM glucose, 0.25% BSA, pH 7.4) to prepare the transport solutions (0.1-300 μM compound, final DMSO<=0.5%). The transport solution (TL) is applied to the apical or basolateral donor side for measuring A-B or B-A permeability (3 filter replicates), respectively. The receiver side contains the same buffer as the donor side. Samples are collected at the start and end of experiment from the donor and at various time intervals for up to 2 hours also from the receiver side for concentration measurement by HPLC-MS/MS or scintillation counting. Sampled receiver volumes are replaced with fresh receiver solution.

Compound	efflux ratio
CC[C@@H](CNc1cnc(C(F)(F)F)cn1)N(C)C(=O)c1cc(Cl)ccc1-n1nccn1 [Ex 40 in WO2016/034882, reference compound]	< 3
CC[C@@H](CNc1ncc(C(F)(F)F)cn1)N(C)C(=O)c1nc(C)ccc1-n1nccn1 [Ex 46 in WO2016/034882]	< 3
CC[C@@H](CNc1ncc(C(F)(F)F)cn1)N(C)C(=O)c1nc(C)ccc1-c1ncccn1 [Ex 84 in WO2016/034882, reference compound]	< 3
CC[C@@H](CNc1ncc(C(F)(F)F)cn1)N(C)C(=O)c1nc(C)ccc1-n1cccn1 [Ex 90 in WO2016/034882]	< 3
CC[C@@H](CNc1ncc(C(F)(F)F)cn1)N(C)C(=O)c1c(F)cccc1-n1nccn1 [Ex 91 in WO2016/034882]	< 3
CCN(C(=O)c1ccc(F)cc1-n1nccn1)[C@@H](C)CNc1ncc(C(F)(F)F)cn1 [Example 2]	< 3
CCN(C(=O)c1ccc(F)c(F)c1-n1nccn1)[C@@H](C)CNc1ncc(C(F)(F)F)cn1 [Example 4]	< 3
CCN(C(=O)c1cc(F)ccc1-n1nccn1)[C@@H](C)CNc1ncc(C(F)(F)F)cn1 [Example 5]	< 3
CCN(C(=O)c1c(F)cccc1-n1nccn1)[C@@H](C)CNc1ncc(C(F)(F)F)cn1 [Example 7]	< 3
CCN(C(=O)c1cc(C#N)ccc1-n1nccn1)[C@@H](C)CNc1ncc(C(F)(F)F)cn1 [Example 8]	3 to 5
CCN(C(=O)c1cc(F)cnc1-n1nccn1)[C@@H](C)CNc1ncc(C(F)(F)F)cn1 [Example 10]	< 3

Biological target: T3, human Orexin 1 receptor (Homo sapiens, UniProt O43613)
T3 construct: stably expressing the full-length human Orexin 1 receptor and the aequorin photoprotein; expressed in transfected cells; host or cells: CHO-K1 (CHO-K1/hOx1), co-expressing aequorin
T3 sequence (O43613 1-425): T1 sequence (O43613 1-425)
Assay: Assay A: OX1R IP1 (in vitro OX1R potency)
Type: cell-based
Conditions: versus Example 91 in WO2016/034882
Text: Activation of the orexin receptors expressed in cell lines results in an increase in intracellular IP3 concentration. IP1, a downstream metabolite of IP3, accumulates in cells following receptor activation and is stable in the presence of LiCl. Using Homogeneous Time-Resolved Fluorescence technology with Lumi4-Tb cryptate (commercially available from Cisbio Bioassay.) and a suitable fluorescence plate reader. […] This technique is used to characterize pharmacological modification of the orexin receptors.
A. In Vitro Testing of OX1R Potency: OX1R IP1
IP1 measurements are performed in CHO-K1 cells stably expressing the full-length human Orexin 1 receptor and the aequorin photoprotein. Cells are cultivated in Ham's nutrient mixture F12 medium with 10% fetal calf serum, in a 37° C., 95% humidity and 5% CO2 incubator. The CHO-K1/hOx1 cell mass is expanded to larger cell numbers. The cells are obtained as frozen cells in cryo-vials and stored until use at −150° C. […] In preparation for the assay, 24 hours before the assay, the cells are thawed at 37° C. and immediately diluted with cell culture medium. After centrifugation, the cell pellet is re-suspended in medium and then distributed into the assay plates with a density of 10000 cells/25 μL per well. The plates are incubated for one hour at room temperature to reduce edge effects before they are incubated for 24 hours at 37° C./5% CO2. Compounds are prepared by an 8-point serial dilution in DMSO and a final dilution step into assay buffer (HBSS with 20 mM HEPES, 0.1% BSA and 50 mM LiCl, pH 7.4) to ensure a final DMSO concentration of 1% in the assay.
On the day of the assay, cells in the plate are washed twice with 60 μL assay buffer (20 μL buffer remained in the wells after washing), followed by adding 5 μL per well of compounds diluted in assay buffer. After 15 minutes of incubation at room temperature 5 μL per well of Orexin A peptide (final concentration: 0.5 nM, and/or 50 nM) dissolved in assay buffer is added to the assay plate. The assay plate is incubated for 60 minutes at 37° C. Then 5 μl per well of Anti-IP1-Cryptate Tb solution and 5 μl per well of IP1-d2 dilution are added and the plate is incubated for a further 60 minutes light protected at room temperature. […] 8-point four parametric non-linear curve fitting and determination of IC50 values and Hill slopes is performed using a regular analysis software e.g. AssayExplorer (Accelrys).
Kb values from Assay A (OX1R) and Assay B (OX2R) can then provide a selectivity ratio which is independent of the agonist (Orexin A) concentration.

Compound	more potent at OX1R [fold]
CCN(C(=O)c1c(F)cccc1-n1nccn1)[C@@H](C)CNc1ncc(C(F)(F)F)cn1 [Example 7]	25
